How the values were obtained:
Assay type in all cases: biochemical
Conditions in all cases: 3 μM; percent of control kinase activity
CSK(h) = CSK(h) (Homo sapiens, UniProt P41240); assay: CSK(h) kinase assay
Procedure: (§1) Six compounds (presumptive single agents) were tested against a panel of 50 kinases. The results are presented in Table 2; numbers for each kinase indicate the percent of control kinase activity in the presence of a 3μM concentration of the indicated agent.
(§2) Agents that target two or more different kinases are useful in the methods of the invention as described elsewhere herein. Such compounds may be identified, and their effect on certain kinases may be identified, using the assays briefly described below in Examples 4-83. Each of these assays was carried out as described in Davies et al., Biochem. J., 351:95-105 (2000). All assays were carried out at 10 μM ATP unless otherwise noted.
In a final reaction volume of 25 μl, CSK (h) (5-10 mU) is incubated with 50 mM Tris pH 7.5, 0.1 mM EGTA, 0.1 mM NaVanadate, 0.1% β-mercaptoethanol, 0.1 mg/ml poly(Glu, Tyr) 4:1, 10 mM MnCl2, 10 mM MgAcetate and [γ-^33P-ATP] (specific activity approx. 500 cpm/pmol, concentration as required). The reaction is initiated by the addition of Mg^2+ [γ-^33P-ATP]. After incubation for 40 minutes at room temperature, the reaction is stopped by the addition of 5 μl of a 3% phosphoric acid solution. 10 μl of the reaction is then spotted onto a Filtermat A and washed three times for 5 minutes in 75 mM phosphoric acid and once in methanol prior to drying and scintillation counting.

PKA(h) = PKA(h) (Homo sapiens, UniProt P17612); assay: PKA(h) kinase assay
Procedure: as §1, §2
(§3) In a final reaction volume of 25 μl, PKA(h) (5-10 mU) is incubated with 8 mM MOPS pH 7.0, 0.2 mM EDTA, 30 μM LRRASLG (Kemptide; SEQ ID NO:10), 10 mM MgAcetate and [γ-^33P-ATP] (specific activity approx. 500 cpm/pmol, concentration as required). The reaction is initiated by the addition of Mg^2+ [γ-^33P-ATP]. After incubation for 40 minutes at room temperature, the reaction is stopped by the addition of 5 [Il of a 3% phosphoric acid solution. 10 μl of the reaction is then spotted onto a P30 filtermat and washed three times for 5 minutes in 50 mM phosphoric acid and once in methanol prior to drying and scintillation counting.

PKD2(h) = target: T1, PKD2(h) (Homo sapiens, UniProt Q9BZL6); assay: PKD2(h) kinase assay
T1 sequence (Q9BZL6 1-878): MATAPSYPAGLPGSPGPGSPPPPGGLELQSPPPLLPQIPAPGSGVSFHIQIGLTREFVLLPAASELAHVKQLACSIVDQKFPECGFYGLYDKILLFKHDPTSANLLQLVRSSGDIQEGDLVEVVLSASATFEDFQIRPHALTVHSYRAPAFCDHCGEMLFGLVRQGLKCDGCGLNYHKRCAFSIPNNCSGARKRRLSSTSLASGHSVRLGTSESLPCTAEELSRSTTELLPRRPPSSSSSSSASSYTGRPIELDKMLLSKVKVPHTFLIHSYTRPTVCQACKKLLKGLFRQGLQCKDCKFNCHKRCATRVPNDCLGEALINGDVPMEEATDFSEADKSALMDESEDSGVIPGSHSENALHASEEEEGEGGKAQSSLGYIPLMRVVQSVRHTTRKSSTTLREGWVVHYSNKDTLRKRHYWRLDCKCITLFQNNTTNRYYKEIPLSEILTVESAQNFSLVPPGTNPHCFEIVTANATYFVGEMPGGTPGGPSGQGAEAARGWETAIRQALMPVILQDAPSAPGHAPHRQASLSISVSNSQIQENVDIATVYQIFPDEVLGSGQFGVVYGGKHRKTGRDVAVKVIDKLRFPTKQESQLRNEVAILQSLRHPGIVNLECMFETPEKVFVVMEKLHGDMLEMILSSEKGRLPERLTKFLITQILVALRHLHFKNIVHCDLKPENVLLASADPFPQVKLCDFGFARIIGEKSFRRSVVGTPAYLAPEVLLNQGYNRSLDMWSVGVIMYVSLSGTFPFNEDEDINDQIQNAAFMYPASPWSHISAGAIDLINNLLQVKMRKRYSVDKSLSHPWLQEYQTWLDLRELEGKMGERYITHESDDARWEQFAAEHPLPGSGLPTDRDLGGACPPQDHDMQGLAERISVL
Procedure: as §1, §2

CDK7/cyclinH/MAT1 = CDK7/cyclinH/MAT1 (Homo sapiens, UniProt P50613); assay: CDK7/cyclinH/MAT1 kinase assay
Procedure: as §1, §2
In a final reaction volume of 25 μl, CDK7/cyclinH/MAT1 (h) (5-10 mU) is incubated with 8 mM MOPS pH 7.0, 0.2 mM EDTA, 500 μM peptide, 10 mM MgAcetate and [γ-^33P-ATP] [specific activity approx. 500 cpm/pmol, concentration as required). The reaction is initiated by the addition of Mg^2+ [γ-33 P-ATP]. After incubation for 40 minutes at room temperature, the reaction is stopped by the addition of 5 μl of a 3% phosphoric acid solution. 10 μl of the reaction is then spotted onto a P30 filtermat and washed three times for 5 minutes in 75 mM phosphoric acid and once in methanol prior to drying and scintillation counting.

GSK3β(h) = GSK3β(h) (Homo sapiens, UniProt P49841); assay: GSK3β(h) kinase assay
Procedure: as §1, §2
as §3, with “μl, GSK3β (h)” for “μl, PKA(h)”, “EDTA, 20” for “EDTA, 30”, “μM […](p)EDEEE (phospho GS2 peptide;” for “μM LRRASLG (Kemptide;”, “ID NO:3),” for “ID NO:10),”, “[γ-^33P-ATP] (Specific” for “[γ-^33P-ATP] (specific”, “5 μl” for “5 [Il”

Sequence of CSK(h) (P41240 whole entry): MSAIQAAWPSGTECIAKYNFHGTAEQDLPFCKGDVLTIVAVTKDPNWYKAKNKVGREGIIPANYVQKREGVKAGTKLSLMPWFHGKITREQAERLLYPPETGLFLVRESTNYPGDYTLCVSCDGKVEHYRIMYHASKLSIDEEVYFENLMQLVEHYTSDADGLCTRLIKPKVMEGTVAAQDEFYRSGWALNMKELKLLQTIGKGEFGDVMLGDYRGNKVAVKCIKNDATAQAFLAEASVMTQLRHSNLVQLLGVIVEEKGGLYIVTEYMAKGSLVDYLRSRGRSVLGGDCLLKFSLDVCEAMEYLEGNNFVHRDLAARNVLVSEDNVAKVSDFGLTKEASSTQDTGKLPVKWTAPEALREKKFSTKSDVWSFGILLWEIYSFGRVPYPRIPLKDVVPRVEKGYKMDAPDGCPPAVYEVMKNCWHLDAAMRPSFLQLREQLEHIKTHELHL
Sequence of CDK7/cyclinH/MAT1 (P50613 whole entry): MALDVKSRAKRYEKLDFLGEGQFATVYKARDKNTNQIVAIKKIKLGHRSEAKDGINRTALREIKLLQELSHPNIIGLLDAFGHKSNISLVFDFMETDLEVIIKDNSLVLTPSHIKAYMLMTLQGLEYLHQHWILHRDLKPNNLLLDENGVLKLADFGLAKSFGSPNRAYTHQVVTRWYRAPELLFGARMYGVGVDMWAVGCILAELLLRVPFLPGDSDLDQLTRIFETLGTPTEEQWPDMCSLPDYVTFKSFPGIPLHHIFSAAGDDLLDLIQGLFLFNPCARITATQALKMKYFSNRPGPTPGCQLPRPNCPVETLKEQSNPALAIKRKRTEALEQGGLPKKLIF
Sequence of CDK7/cyclinH/MAT1 (P51946 whole entry partner): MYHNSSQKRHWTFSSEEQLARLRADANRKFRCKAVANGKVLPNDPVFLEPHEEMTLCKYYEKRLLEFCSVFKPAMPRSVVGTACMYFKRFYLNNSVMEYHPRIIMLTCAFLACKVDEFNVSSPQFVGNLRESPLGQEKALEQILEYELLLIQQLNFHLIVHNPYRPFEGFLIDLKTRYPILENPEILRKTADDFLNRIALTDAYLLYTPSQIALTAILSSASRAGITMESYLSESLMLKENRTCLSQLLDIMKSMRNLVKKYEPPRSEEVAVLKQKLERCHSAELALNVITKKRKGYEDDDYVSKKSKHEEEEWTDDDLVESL
Sequence of CDK7/cyclinH/MAT1 (P51948 whole entry partner): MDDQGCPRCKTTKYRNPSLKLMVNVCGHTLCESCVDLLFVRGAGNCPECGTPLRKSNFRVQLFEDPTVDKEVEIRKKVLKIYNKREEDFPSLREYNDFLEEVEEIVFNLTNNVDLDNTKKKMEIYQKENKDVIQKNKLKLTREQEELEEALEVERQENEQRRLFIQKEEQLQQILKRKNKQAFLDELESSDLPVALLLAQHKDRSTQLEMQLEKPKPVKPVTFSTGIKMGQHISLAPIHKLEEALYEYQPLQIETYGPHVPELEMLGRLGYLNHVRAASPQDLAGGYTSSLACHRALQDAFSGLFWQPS
Sequence of GSK3β(h) (P49841 whole entry): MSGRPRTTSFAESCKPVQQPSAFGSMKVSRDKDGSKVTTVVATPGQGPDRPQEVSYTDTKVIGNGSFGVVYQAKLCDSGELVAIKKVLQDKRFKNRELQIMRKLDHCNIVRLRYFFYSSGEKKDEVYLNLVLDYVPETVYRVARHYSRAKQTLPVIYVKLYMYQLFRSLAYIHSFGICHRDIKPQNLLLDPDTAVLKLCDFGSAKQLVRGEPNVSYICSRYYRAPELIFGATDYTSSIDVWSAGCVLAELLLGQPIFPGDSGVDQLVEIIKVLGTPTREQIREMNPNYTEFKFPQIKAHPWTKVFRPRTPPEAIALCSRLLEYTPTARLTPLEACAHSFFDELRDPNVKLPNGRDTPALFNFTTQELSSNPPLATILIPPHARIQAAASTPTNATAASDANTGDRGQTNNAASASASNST

SMILES	Inhibitory activity (% of control), CSK(h) (CSK(h))	Inhibitory activity (% of control), PKA(h) (PKA(h))	Inhibitory activity (% of control), PKD2(h) (PKD2(h))	Inhibitory activity (% of control), CDK7/cyclinH/MAT1 (CDK7/cyclinH/MAT1)	Inhibitory activity (% of control), GSK3β(h) (GSK3β(h))
COc1ccc2cc(-c3n[nH]c4ccc(-c5n[nH]c(CN6CCOCC6)n5)cc34)ccc2c1 [CC001, 3-(6-Methoxynaphthalen-2-yl)-5-(5-Morpholin-4-Ylmethyl-1H-[1,2,4]Triazol-3-yl)-1H-Indazole]	95 % of control	60 % of control	14 % of control	13 % of control	12 % of control
CC(C)(C)Cc1nc(-c2ccc3[nH]nc(-c4ccc5cc(OCc6ccccn6)ccc5c4)c3c2)n[nH]1 [CC004, 5-[5-(2,2-Dimethyl-propyl)-1H-[1,2,4]triazol-3-yl]-3-[6-(pyridine-2-ylmethoxy)-naphthalen-2-yl]-1H-indazole]	123 % of control	91 % of control	26 % of control	19 % of control	63 % of control
CCN1CCC[C@H]1COc1ccc2cc(-c3n[nH]c4ccc(-c5nc(CC(C)(C)C)n[nH]5)cc34)ccc2c1 [CC005, 2-[((2s)-1-ethylpyrrolidin-2-yl)methoxy]-6-{5-[3-(2,2-Dimethylpropyl)(1H-1,2,4,-triazol-5-yl)](1H-indazol-3-yl)}naphthalene]	88 % of control	50 % of control	0 % of control	7 % of control	34 % of control
